Structures are written as SMILES.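 Where inhibition never reached the appropriate level, the endpoint shown equals the highest concentration tested. Otherwise, values were interpolated linearly from a five-concentration, 48-hour dose response in 96-well plates. At the GI50, growth is halved.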 The source made the active and inactive calls. Cut-off read from the data, not from the text of the source: active = GI50 up to about 1.1 µM and inactive = higher. A value given as a limit tells only on which side of the number the result lay.

Test systems include CAKI-1; CCRF-CEM; SF-539; Malme-3M; OVCAR-3; A549; RXF 393; MCF7; MOLT-4; RPMI-8226; NCI/ADR-RES; SNB-19; HT-29; K562; OVCAR-5; SK-MEL-5; T47D; HOP-62; NCI-H460.
Experiment in all cases: inhibition of tumour cell growth, NCI panel, 48 h

Regarding `Cc1nc(=O)[nH]c2c1C(=O)N(C(C)C)C(NC(C)C)S2` (centres undefined), the GI50 is 55.1 µM (inactive) with CAKI-1; > 100 µM (inactive) in the assay on CCRF-CEM; > 100 µM (inactive) in the assay with SF-539; 57.7 µM (inactive) in the assay with Malme-3M; 26.9 µM (inactive) with OVCAR-3; > 100 µM (inactive) in the assay with A549. The GI50 with RXF 393, with MCF7, in the assay on MOLT-4, with RPMI-8226, in the assay on NCI/ADR-RES and in the assay on SNB-19 was > 100 µM (inactive) throughout. The GI50 in the assay with HT-29 is > 100 µM (inactive); in the assay on K562, > 100 µM (inactive); with OVCAR-5, > 100 µM (inactive); in the assay on SK-MEL-5, > 100 µM (inactive); with T47D it was 90.2 µM (inactive); in the assay with HOP-62, > 100 µM (inactive).

With `Cc1ccc(S(=O)(=O)NC(=O)NS(=O)(=O)O)cc1`, the GI50 in the assay on CCRF-CEM, in the assay with SF-539, with Malme-3M, in the assay with A549, in the assay on RXF 393 and with MCF7 was > 100 µM (inactive) in each case. For the same compound, the GI50 in the assay with NCI-H460 was > 100 µM (inactive); with MOLT-4, > 100 µM (inactive); with RPMI-8226 it was 0.0771 µM (active); with NCI/ADR-RES it was > 100 µM (inactive); in the assay with SNB-19, > 100 µM (inactive); with HT-29 it was > 100 µM (inactive). Moreover, the GI50 with K562, in the assay on OVCAR-5, in the assay on SK-MEL-5, in the assay with T47D and with HOP-62 was > 100 µM (inactive) throughout.

Consider `Cc1ccc([N+](=O)[O-])cc1S(=O)(=O)Nc1ccc(C2=NN(C(=O)c3ccccc3)C(c3cccs3)C2)cc1` (centres undefined), for which the GI50 is 26.2 µM (inactive) in the assay on CAKI-1; 37.8 µM (inactive) in the assay with CCRF-CEM; 18.2 µM (inactive) in the assay with SF-539; 19.1 µM (inactive) in the assay on Malme-3M; 13 µM (inactive) in the assay with OVCAR-3; 19.5 µM (inactive) with A549. For the same compound, the GI50 in the assay on RXF 393 was 15.2 µM (inactive); with MCF7, 18.1 µM (inactive); with MOLT-4 it was 20.4 µM (inactive); in the assay on RPMI-8226 it was 31.6 µM (inactive); in the assay with NCI/ADR-RES, 30.9 µM (inactive); in the assay with SNB-19, 33 µM (inactive). In addition, the GI50 was 26.3 µM (inactive) in the assay with HT-29; 22.1 µM (inactive) with K562; 42.5 µM (inactive) in the assay on OVCAR-5; 13.6 µM (inactive) with SK-MEL-5; 9.42 µM (inactive) in the assay on T47D; 20.9 µM (inactive) in the assay with HOP-62.

Regarding `CCNC(=O)Cc1nc2c(N)ncnc2n1C1OC(CO)C(O)C1O` (centres undefined), the GI50 in the assay on CAKI-1 was > 100 µM (inactive); with CCRF-CEM, > 10 µM (inactive); with SF-539, > 100 µM (inactive); in the assay with Malme-3M, > 100 µM (inactive); with OVCAR-3, > 100 µM (inactive); in the assay on A549, > 100 µM (inactive). Moreover, the GI50 is 23.3 µM (inactive) in the assay with MCF7; > 100 µM (inactive) with NCI-H460; > 100 µM (inactive) with MOLT-4; > 100 µM (inactive) in the assay with RPMI-8226; > 100 µM (inactive) in the assay on NCI/ADR-RES; > 100 µM (inactive) in the assay with SNB-19. The GI50 in the assay on HT-29 is > 100 µM (inactive); in the assay on K562, > 100 µM (inactive); in the assay with SK-MEL-5, > 100 µM (inactive); in the assay on T47D it was 58.6 µM (inactive); with HOP-62, > 100 µM (inactive).

Regarding `COc1ccc2c(c1)CCc1c(-c3noc4c3CCc3cc(OC)ccc3-4)noc1-2`, the GI50 in the assay with CAKI-1, in the assay with SF-539, in the assay on Malme-3M, with OVCAR-3, in the assay on A549 and in the assay with RXF 393 was > 100 µM (inactive) in each case. For the same compound, the GI50 in the assay on MCF7, with NCI-H460, in the assay with MOLT-4, in the assay on RPMI-8226, in the assay on NCI/ADR-RES and in the assay with SNB-19 was > 100 µM (inactive) in each case. For the same compound, the GI50 with HT-29, in the assay on K562, with OVCAR-5, with SK-MEL-5, in the assay with T47D and in the assay with HOP-62 was > 100 µM (inactive) in each case.

`CC(=O)c1c2c(cc3c1CC1(C3)Cc3cc4c(c(C(C)=O)c3C1)CCCC4)CCCC2`: the GI50 in the assay on CCRF-CEM was 7.19 µM (inactive); with SF-539 it was > 100 µM (inactive); in the assay with Malme-3M it was > 100 µM (inactive); in the assay with OVCAR-3, 41.6 µM (inactive); with A549, > 100 µM (inactive); in the assay with RXF 393 it was > 100 µM (inactive). For the same compound, the GI50 is 56.2 µM (inactive) in the assay on MCF7; 18.4 µM (inactive) with MOLT-4; 21.3 µM (inactive) with RPMI-8226; > 100 µM (inactive) in the assay with NCI/ADR-RES; 63.2 µM (inactive) with HT-29; 20.1 µM (inactive) in the assay with K562. For the same compound, the GI50 with OVCAR-5 was > 100 µM (inactive); with SK-MEL-5 it was 17.4 µM (inactive); in the assay with T47D, 62.2 µM (inactive); in the assay on HOP-62, > 100 µM (inactive).

`COc1cc(Cn2c3c(c4cc(O)ccc42)C(=O)c2ccccc2C3=O)cc(OC)c1`: the GI50 was 15.2 µM (inactive) in the assay on CAKI-1; 2.05 µM (inactive) in the assay on SF-539; 8.22 µM (inactive) in the assay on Malme-3M; 20.6 µM (inactive) in the assay on OVCAR-3; 10.5 µM (inactive) in the assay on A549; 3.92 µM (inactive) in the assay on RXF 393. Also, the GI50 is 12.2 µM (inactive) with MCF7; 5.61 µM (inactive) in the assay on NCI-H460; 16.3 µM (inactive) with MOLT-4; 0.337 µM (active) with RPMI-8226; 6 µM (inactive) in the assay with NCI/ADR-RES; 4.5 µM (inactive) with SNB-19. In addition, the GI50 with HT-29 is 4.1 µM (inactive); in the assay on OVCAR-5 it was 9.23 µM (inactive); with SK-MEL-5, 4.29 µM (inactive); in the assay with T47D it was 6.35 µM (inactive); with HOP-62, 2.77 µM (inactive).

Turning to `CC(=O)Oc1ccc(C)c2c1[C@H]1CC[C@]3(C)[C@@H](OC(C)=O)CC[C@H]3[C@@H]1CC2`, the GI50 in the assay on CCRF-CEM was 21.9 µM (inactive); in the assay on SF-539 it was 19.6 µM (inactive); in the assay with Malme-3M, 15.7 µM (inactive); with OVCAR-3, 18.2 µM (inactive); in the assay with A549, 20.5 µM (inactive); with RXF 393, 19.1 µM (inactive). Besides, the GI50 in the assay with MCF7 is 23.6 µM (inactive); in the assay with NCI-H460 it was 20 µM (inactive); in the assay with MOLT-4, 16 µM (inactive); in the assay with RPMI-8226, 19.4 µM (inactive); in the assay with NCI/ADR-RES it was 18.2 µM (inactive); with SNB-19, 17.9 µM (inactive). Further, the GI50 with HT-29 was 17.1 µM (inactive); with K562, 23.4 µM (inactive); in the assay on OVCAR-5, > 100 µM (inactive); with SK-MEL-5, 19.5 µM (inactive); in the assay with T47D, 19.3 µM (inactive); in the assay on HOP-62, 18.1 µM (inactive).

Consider `CC(NC(=O)C(C)C(=O)NCc1ccc(C(F)(F)F)cc1)C(N)=O` (centres undefined), for which the GI50 with CAKI-1 is > 100 µM (inactive); with CCRF-CEM it was > 100 µM (inactive); in the assay with SF-539 it was > 100 µM (inactive); in the assay with Malme-3M, 27.9 µM (inactive); in the assay on A549, > 100 µM (inactive); in the assay on RXF 393, > 100 µM (inactive). Further, the GI50 was > 100 µM (inactive) with MCF7; > 100 µM (inactive) in the assay on NCI-H460; > 100 µM (inactive) with MOLT-4; > 100 µM (inactive) with RPMI-8226; > 100 µM (inactive) in the assay on NCI/ADR-RES; 63.8 µM (inactive) in the assay on SNB-19. Moreover, the GI50 with HT-29, in the assay on K562, with OVCAR-5, in the assay on SK-MEL-5 and in the assay with T47D was > 100 µM (inactive) in each case.

Consider `Cc1ccc(-n2cc([Si](C)(C)C)nn2)s1`, for which the GI50 in the assay on CAKI-1, with SF-539, in the assay on Malme-3M, with OVCAR-3, in the assay on A549 and with MCF7 was > 100 µM (inactive) throughout. The GI50 in the assay with NCI-H460 was > 100 µM (inactive); with RPMI-8226, 22.9 µM (inactive); in the assay on NCI/ADR-RES, 48.4 µM (inactive); in the assay on SNB-19 it was > 100 µM (inactive); in the assay on HT-29, 34.8 µM (inactive); in the assay with K562, 45.1 µM (inactive). The GI50 in the assay on OVCAR-5 is > 100 µM (inactive); in the assay with SK-MEL-5 it was 45.4 µM (inactive); with T47D, > 100 µM (inactive).

For the compound `OCCNC1=Nc2ccc(Cl)cc2C(=S)N2CSC[C@@H]12`, the GI50 in the assay with CAKI-1, with SF-539, in the assay with Malme-3M, in the assay on OVCAR-3, in the assay with A549 and with RXF 393 was > 100 µM (inactive) throughout. For the same compound, the GI50 with MCF7, in the assay with NCI-H460, in the assay with MOLT-4, in the assay with RPMI-8226, in the assay with NCI/ADR-RES and with SNB-19 was > 100 µM (inactive) throughout. The GI50 with HT-29, in the assay with K562, in the assay with OVCAR-5, with SK-MEL-5, in the assay with T47D and in the assay with HOP-62 was > 100 µM (inactive) in each case.

Source of the values: ChEMBL document CHEMBL1201862, “PubChem BioAssay data set” (2004).
